The subject of one assay is HCV replicon 1a. Put plainly: Cell-based HCV replicon assay (TaqMan), genotype 1a replicon. As to conditions: Hepatitis C virus, 72 h, HCV 1a replicon cells, replicon RNA by TaqMan on day 3; EC90 = concentration for ΔCT=3.2 over baseline. The procedure: (§1) Measurement of inhibition by compounds of the present invention was performed using the HCV replicon system. Several different replicons encoding different HCV genotypes or mutations were used. In addition, potency measurements were made using different formats of the replicon assay, including different ways of measurements and different plating formats. See Jan M. Vrolijk et al., A replicons-based bioassay for the measurement of interferons in patients with chronic hepatitis C, 110 J. VIROLOGICAL METHODS 201 (2003); Steven S. Carroll et al., Inhibition of Hepatitis C Virus RNA Replication by 2′-Modified Nucleoside Analogs, 278(14) J. BIOLOGICAL CHEMISTRY 11979 (2003). However, the underlying principles are common to all of these determinations, and are outlined below.
(§2) Compounds of the present invention were assayed for cell-based anti-HCV activity using the following protocol. Replicon cells were seeded at 5000 cells/well in 96-well collagen I-coated Nunc plates in the presence of the test compound. Various concentrations of test compound, typically in 10 serial 2-fold dilutions, were added to the assay mixture, with the starting concentration ranging from 250 μM to 1 μM. The final concentration of DMSO was 0.5%, fetal bovine serum was 5%, in the assay media. Cells were harvested on day 3 by the addition of 1× cell lysis buffer (Ambion cat #8721). The replicon RNA level was measured using real time PCR (TaqMan® assay). The amplicon was located in 5B. The PCR primers were: 5B.2F, ATGGACAGGCGCCCTGA (SEQ. ID NO. 1); 5B.2R, […] (SEQ. ID NO. 2); the probe sequence was FAM-labeled CACGCCATGCGCTGCGG (SEQ. ID NO. 3). GAPDH RNA was used as endogenous control and was amplified in the same reaction as NS5B (multiplex PCR) using primers and VIC-labeled probe recommended by the manufacturer (PE Applied Biosystem). The real-time […] reactions were run on ABI PRISM 7900HT Sequence Detection System using the following program: 48° C. for 30 minutes, 95° C. for 10 minutes, 40 cycles of 95° C. for 15 sec, 60° C. for 1 minute. The ACT values (CT5B-CTGAPDH) were plotted against the concentration of test compound and fitted to the sigmoid dose-response model using XLfit4 (MDL). EC50 was defined as the concentration of inhibitor necessary to achieve ΔCT=1 over the projected baseline; EC90 the concentration necessary to achieve ΔCT=3.2 over the baseline. Alternatively, to quantitate the absolute amount of replicon RNA, a standard curve was established by including serially diluted T7 transcripts of replicon RNA in the Taqman assay. All TaqMan® reagents were from PE Applied Biosystems. Such an assay procedure was described in detail in e.g. Malcolm et al., Antimicrobial Agents and Chemotherapy 50: 1013-1020 (2006).
(§3) HCV replicon EC50 assay data for various replicons and mutants was calculated for selected compounds of the present invention using this method and is provided in the tables above herein.
For orientation: A replicon is a self-replicating genome or part of one, used to study replication in cells.

Another assay concerns HCV replicon 1a Y93H. Put plainly: Cell-based HCV replicon assay (TaqMan), genotype 1a Y93H mutant replicon. As to conditions: Hepatitis C virus, 72 h, read-out: 1a Y93H EC90, HCV 1a Y93H mutant replicon cells, replicon RNA by TaqMan on day 3; EC90 = concentration for ΔCT=3.2 over baseline. The procedure:
as §1, §2, §3

Another assay deals with HCV replicon 2b. Put plainly: Cell-based HCV replicon assay (TaqMan), genotype 2b replicon. The note with it: Hepatitis C virus, 72 h, read-out: 2b EC90, HCV 2b replicon cells, replicon RNA by TaqMan on day 3; EC90 = concentration for ΔCT=3.2 over baseline. How it is done: as §1, §2, §3
The subject of a further assay is HCV replicon 1b. The assay can be described thus: Cell-based HCV replicon assay (TaqMan), genotype 1b replicon. As to conditions: Hepatitis C virus, 72 h, HCV 1b replicon cells, replicon RNA by TaqMan on day 3; EC90 = concentration for ΔCT=3.2 over baseline. How it is done: as §1, §2, §3

Molecules are shown by their SMILES.

As a reminder, the EC90 is the concentration needed for an effect of 90%.

`C[Si]1(C)C[C@@H](c2ncc(-c3ccc(-c4ccc(-c5[nH]c([C@@H]6CCCN6C(=O)[C@H]6CCCO6)nc5Cl)cc4)cc3)[nH]2)N(C(=O)[C@H]2CCCO2)C1` [Compound 67]: the EC90 in the assay with HCV replicon 1a is 211 nM; with HCV replicon 1a Y93H it was 510 nM; in the assay with HCV replicon 2b, above 1000 nM.

On to `CC(C)(C)OC(=O)N1C[Si](C)(C)C[C@H]1c1ncc(-c2ccc(-c3ccc(-c4ncc([C@@H]5C[C@H]6C[C@H]6N5C(=O)OC(C)(C)C)[nH]4)cc3)cc2)[nH]1` [Compound 68], for which the EC90 with HCV replicon 1a and in the assay on HCV replicon 1a Y93H was above 1000 nM in each case.

As for `CC(C)(C)OC(=O)N1CCC[C@H]1C(=O)Nc1nn(C(=O)OC(C)(C)C)c2ccc(-c3ccc(-c4cnc([C@@H]5C[Si](C)(C)CN5C(=O)OC(C)(C)C)[nH]4)cc3)cc12` [Compound 77], the EC90 in the assay with HCV replicon 1a is above 1000 nM; with HCV replicon 1a Y93H, above 10000 nM.

For the compound `COC(=O)N[C@H](C(=O)N1CC(F)(F)C[C@H]1c1ncc(-c2ccc(-c3ccc(-c4cnc([C@@H]5C[Si](C)(C)CN5C(=O)[C@@H](NC(=O)OC)C(C)C)[nH]4)cc3)cc2)[nH]1)C(C)C` [Compound 4], the EC90 amounted to 0.1 nM in the assay on HCV replicon 1a, 272 nM in the assay with HCV replicon 1a Y93H and 0.007 nM in the assay on HCV replicon 1b.

`COC(=O)N[C@H](C(=O)N1CC(F)(F)C[C@H]1c1cnc(-c2ccc(-c3ccc(-c4cnc([C@@H]5C[Si](C)(C)CN5C(=O)[C@@H](NC(=O)OC)C(C)C)[nH]4)cc3)cc2)[nH]1)C(C)C` [Compound 74]: the results for the EC90 in the assay with HCV replicon 1a and in the assay on HCV replicon 1a Y93H were 0.27 nM and 644 nM, respectively.

Regarding `CC(C)(C)OC(=O)N1C[Si](C)(C)C[C@H]1c1ncc(-c2ccc(-c3ccc(-c4[nH]c([C@@H]5CCCN5C(=O)OC(C)(C)C)nc4C4CC4)cc3)cc2)[nH]1` [Compound 61], the results for the concentration for an effect of 90% (EC90) with HCV replicon 1a and with HCV replicon 1a Y93H were 81 nM and 655 nM, respectively.

In the case of `COC(=O)N[C@H](C(=O)N1C[Si](C)(C)C[C@H]1c1ncc(-c2ccc(-c3ccc(-c4cnc([C@@H]5C[Si](C)(C)CN5C(=O)[C@@H](NC(=O)OC)C(C)C)[nH]4)cc3)cc2)[nH]1)C(C)C` [Compound 6], the figures for the EC90 in the assay on HCV replicon 1a, in the assay on HCV replicon 1a Y93H and in the assay on HCV replicon 1b were 0.98 nM, above 1000 nM and 0.015 nM, respectively.

Take `COC(=O)N[C@H](C(=O)N1CCC[C@H]1c1ncc(-c2ccc(-c3ccc(-c4cnc([C@@H]5C[Si](C)(C)CN5C(=O)[C@@H](NC(=O)OC)C(C)C)[nH]4)cc3)cc2)[nH]1)C(C)C` [Compound 3]: the values for the EC90 in the assay on HCV replicon 1a, with HCV replicon 1a Y93H and with HCV replicon 1b were 0.16 nM, 398 nM and 0.005 nM, respectively.

In the case of `COC(=O)N[C@H](C(=O)N1CCC[C@H]1c1ncc(-c2ccc(-c3ccc(-c4cnc([C@@H]5C[Si](C)(C)CN5C(=O)[C@@H](NC(=O)OC)C(C)C)[nH]4)c(OC)c3)cc2)[nH]1)C(C)C` [Compound 70], the results for the EC90 with HCV replicon 1a, with HCV replicon 1a Y93H and with HCV replicon 1b were above 1 nM, above 1000 nM and 0.006 nM, respectively.

Turning to `COC(=O)N[C@H](C(=O)N1CCC[C@H]1c1cnc(-c2ccc3c(c2)[Si](C)(C)c2cc(-c4cnc([C@@H]5CCCN5C(=O)[C@@H](NC(=O)OC)C(C)C)[nH]4)ccc2-3)[nH]1)C(C)C` [Compound 82], the EC90 in the assay on HCV replicon 1a was found to be 0.076 nM; with HCV replicon 1a Y93H, 811 nM; in the assay with HCV replicon 1b, 0.043 nM.

For the compound `COC(=O)N[C@H](C(=O)N1CCC[C@H]1c1cnc(-c2ccc(-c3ccc(-c4cnc([C@@H]5C[Si](C)(C)CN5C(=O)[C@@H](NC(=O)OC)C(C)C)[nH]4)cc3)cc2)[nH]1)C(C)C` [Compound 72], the 90% effect concentration (EC90) was 0.092 nM with HCV replicon 1a, 330 nM in the assay with HCV replicon 1a Y93H and 0.005 nM in the assay on HCV replicon 1b.

As for `COC(=O)N[C@H](C(=O)N1C[C@H](F)C[C@H]1c1ncc(-c2ccc(-c3ccc(-c4cnc([C@@H]5C[Si](C)(C)CN5C(=O)[C@@H](NC(=O)OC)C(C)C)[nH]4)cc3)cc2)[nH]1)C(C)C` [Compound 7], the results for the EC90 with HCV replicon 1a, with HCV replicon 1a Y93H and in the assay on HCV replicon 1b were 0.77 nM, 229 nM and 0.009 nM, respectively.

Take `COC(=O)N[C@H](C(=O)N1C[Si](C)(C)C[C@H]1c1ncc(-c2ccc(-c3ccc4[nH]c([C@@H]5CC(F)(F)CN5C(=O)[C@@H](NC(=O)OC)C(C)C)nc4c3)cc2F)[nH]1)C(C)C` [Compound 71]: the 90% effect concentration (EC90) in the assay with HCV replicon 1a was above 1 nM; with HCV replicon 1a Y93H, above 1000 nM; in the assay on HCV replicon 1b it was 0.005 nM.

For the compound `CC(C)(C)OC(=O)N1CCC[C@H]1c1cnc(-c2ccc3c(c2)[Si](C)(C)c2cc(-c4cnc([C@@H]5CCCN5C(=O)OC(C)(C)C)[nH]4)ccc2-3)[nH]1` [Compound 80], the values for the EC90 with HCV replicon 1a and with HCV replicon 1b were above 1 nM and 467 nM, respectively.

For the compound `COC(=O)N[C@H](C(=O)N1C[Si](C)(C)C[C@H]1c1ncc(-c2ccc(-c3ccc(-c4[nH]c([C@@H]5CCCN5C(=O)[C@@H](NC(=O)OC)C(C)C)nc4C4CC4)cc3)cc2)[nH]1)C(C)C` [Compound 63], the 90% effect concentration (EC90) in the assay with HCV replicon 1a turned out to be 0.69 nM; with HCV replicon 1a Y93H, 882 nM; with HCV replicon 2b, 451 nM.

On to `C[Si]1(C)CN[C@H](c2ncc(-c3ccc(-c4ccc(-c5cnc([C@@H]6CCCN6)[nH]5)cc4)cc3)[nH]2)C1` [Compound 2], for which the EC90 with HCV replicon 1a was above 100 nM; in the assay with HCV replicon 1b, above 1000 nM.

Regarding `CC(C)(C)OC(=O)N1C[Si](C)(C)C[C@H]1c1nc(Cl)c(-c2ccc(-c3ccc(-c4[nH]c([C@@H]5C[C@H]6C[C@H]6N5C(=O)OC(C)(C)C)nc4Cl)cc3)cc2)[nH]1` [Compound 49], the EC90 with HCV replicon 1a, in the assay on HCV replicon 1a Y93H and in the assay with HCV replicon 2b was above 1000 nM each time.

Take `COC(=O)N[C@H](C(=O)N1C[Si](C)(C)C[C@H]1c1ncc(-c2ccc(-c3ccc(-c4[nH]c([C@@H]5CCCN5C(=O)[C@@H](NC(=O)OC)C(C)C)nc4Cl)cc3)cc2)[nH]1)C(C)C` [Compound 64]: the figures for the EC90 in the assay with HCV replicon 1a, with HCV replicon 1a Y93H and in the assay on HCV replicon 2b were 0.17 nM, 344 nM and 99 nM, respectively.

Take `COC(=O)N[C@H](C(=O)N1C[C@H](F)C[C@H]1c1ncc(-c2ccc(C#Cc3ccc(-c4cnc([C@@H]5C[Si](C)(C)CN5)[nH]4)cc3)cc2)[nH]1)C(C)C` [Compound 57]: the EC90 is 780 nM in the assay with HCV replicon 1a and above 1000 nM with HCV replicon 1a Y93H.

`COC(=O)N[C@H](C(=O)N1C[Si]2(CCCC2)C[C@H]1c1cnc(-c2ccc(-c3ccc(-c4cnc([C@@H]5CCCN5C(=O)[C@@H](NC(=O)OC)C(C)C)[nH]4)cc3)cc2)[nH]1)C(C)C` [Compound 73]: the EC90 in the assay with HCV replicon 1a stood at 0.38 nM; in the assay with HCV replicon 1a Y93H it was 973 nM; in the assay on HCV replicon 1b, 0.006 nM.

Consider `CC(C)(C)OC(=O)N1CCC[C@H]1C(=O)Nc1n[nH]c2ccc(-c3ccc(-c4cnc([C@@H]5C[Si](C)(C)CN5C(=O)OC(C)(C)C)[nH]4)cc3)cc12` [Compound 76], for which the values for the EC90 with HCV replicon 1a and in the assay on HCV replicon 1a Y93H were above 1000 nM and above 10000 nM, respectively.

Regarding `COC(=O)N[C@H](C(=O)N1C[C@H](F)C[C@H]1c1ncc(-c2ccc(C#Cc3ccc(-c4cnc([C@@H]5C[Si](C)(C)CN5C(=O)OC(C)(C)C)[nH]4)cc3)cc2)[nH]1)C(C)C` [Compound 56], the results for the EC90 in the assay on HCV replicon 1a and with HCV replicon 1a Y93H were 681 nM and above 1000 nM, respectively.

For `COC(=O)N[C@H](C(=O)N1C[Si](C)(C)C[C@H]1c1ncc(-c2ccc(-c3ccc(-c4cnc([C@@H]5[C@H]6CC[C@H](C6)N5C(=O)[C@@H](NC(=O)OC)C(C)C)[nH]4)cc3)cc2)[nH]1)C(C)C` [Compound 5], the EC90 is 0.21 nM with HCV replicon 1a, 203 nM with HCV replicon 1a Y93H and 0.004 nM in the assay with HCV replicon 1b.

Consider `COC(=O)N[C@H](C(=O)N1CCC[C@H]1c1ncc(-c2ccc(-c3ccc4[nH]c([C@@H]5C[Si](C)(C)CN5C(=O)[C@@H](NC(=O)OC)C(C)C)nc4c3)cc2)[nH]1)C(C)C` [Compound 9], for which the EC90 in the assay with HCV replicon 1a is above 1 nM; in the assay on HCV replicon 1a Y93H, above 1000 nM; in the assay with HCV replicon 1b, below 1 nM.
